Data: ChEMBL document CHEMBL1201862, “PubChem BioAssay data set” (2004)
Calls of active or inactive are those of the source.

Assays:
[1] = target: Cytochrome P450 3A4 (Homo sapiens, UniProt P08684); details: Potency;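 also: confirmatory qHTS run detecting inhibitors and substrates of CYP3A4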
[2] = system: H9c2; experiment: cells; format: functional, cell-based; details: Rattus norvegicus, H9c2, Myocardium;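 also: confirmatory concentration-response retest of ultra-high-throughput screening hits for modulation of myocardial damage; cell death induced by hydrogen peroxide oxidative stress; compound pretreatment for 60 min then peroxide exposure for 2 h; potency is for protecting the cells against peroxide damage rather than for killing them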
[3] = target: Large T antigen (Simian virus 40, UniProt P03070); format: functional, Betapolyomavirus macacae;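 also: Confirmatory-stage PubChem screen for compounds that inhibit SV40 T antigen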
[4] = target: FAD-linked sulfhydryl oxidase ALR (Homo sapiens, UniProt P55789); experiment: ALR-catalysed DTT oxidation blockers – biochemical, H2O2 detection, luminescence, cherry-pick, dose response (AID 493248)
[5] = target: T1, Rac GTPase-activating protein 1 (Homo sapiens, UniProt Q9H0H5); experiment: blockers of MgcRacGAP-driven Rac1 GTP hydrolysis – biochemical, ADP Hunter fluorescence, primary and confirmatory, confirmation (AID 624330); format: functional
T1 sequence (Q9H0H5 whole entry): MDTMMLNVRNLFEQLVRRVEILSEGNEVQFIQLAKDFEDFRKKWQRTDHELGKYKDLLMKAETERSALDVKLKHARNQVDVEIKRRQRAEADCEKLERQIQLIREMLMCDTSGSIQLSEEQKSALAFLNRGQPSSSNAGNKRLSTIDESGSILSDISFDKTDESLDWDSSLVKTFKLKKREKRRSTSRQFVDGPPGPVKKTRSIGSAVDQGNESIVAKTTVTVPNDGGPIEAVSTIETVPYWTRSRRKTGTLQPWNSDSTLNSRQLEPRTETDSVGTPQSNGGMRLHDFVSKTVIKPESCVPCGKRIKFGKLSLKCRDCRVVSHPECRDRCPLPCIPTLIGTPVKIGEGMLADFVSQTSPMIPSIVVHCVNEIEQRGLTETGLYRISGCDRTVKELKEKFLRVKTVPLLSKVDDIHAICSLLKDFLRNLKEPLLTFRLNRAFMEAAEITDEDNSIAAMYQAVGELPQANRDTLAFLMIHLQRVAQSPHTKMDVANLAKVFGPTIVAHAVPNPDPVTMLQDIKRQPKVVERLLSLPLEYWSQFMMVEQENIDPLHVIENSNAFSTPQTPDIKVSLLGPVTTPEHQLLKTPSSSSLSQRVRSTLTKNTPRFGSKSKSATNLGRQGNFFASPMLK

[6] = target: T2, Calpain-2 catalytic subunit (Sus scrofa, UniProt P43367); experiment: m-calpain protease blockers, concentration series – biochemical, fluorogenic peptide substrate, dose response (AID 1420); format: functional
T2 sequence (P43367 whole entry): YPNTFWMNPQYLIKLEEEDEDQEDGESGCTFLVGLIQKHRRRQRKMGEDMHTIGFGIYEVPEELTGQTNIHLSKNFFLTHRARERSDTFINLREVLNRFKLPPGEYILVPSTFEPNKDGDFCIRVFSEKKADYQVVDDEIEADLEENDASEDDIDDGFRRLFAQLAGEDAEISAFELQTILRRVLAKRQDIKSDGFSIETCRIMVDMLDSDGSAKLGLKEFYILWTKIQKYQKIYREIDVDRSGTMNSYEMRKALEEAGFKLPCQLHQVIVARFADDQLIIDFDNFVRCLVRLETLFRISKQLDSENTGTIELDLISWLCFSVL

[7] = cells; format: functional
[8] = NIH3T3 cell viability loss – ATP luminescence, mouse fibroblasts, counter-screen, dose response (AID 2010); format: functional, cell-based;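 also: cells exposed to compound for about 90 hours before reading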
[9] = Trypanosoma cruzi growth suppression in host cells – NIH3T3 host cells, beta-gal luminescence, confirmation (AID 2044); format: functional, cell-based;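 also: intracellular parasites grown in NIH/3T3 mouse fibroblasts as host cells; luminescent beta-galactosidase reporter signal from transgenic T. cruzi replicating inside host cells; inhibitors lower the luminescence signal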
[10] = target: T3, Corticotropin-releasing factor receptor 2/Corticotropin-releasing factor-binding protein (Homo sapiens, UniProt P24387+Q13324); experiment: activators of CRF receptor 2 with binding protein – uHTS hits, confirmation (AID 602473); format: functional; details: read-out: EC50_Mean
T3 sequence (Q13324 whole entry): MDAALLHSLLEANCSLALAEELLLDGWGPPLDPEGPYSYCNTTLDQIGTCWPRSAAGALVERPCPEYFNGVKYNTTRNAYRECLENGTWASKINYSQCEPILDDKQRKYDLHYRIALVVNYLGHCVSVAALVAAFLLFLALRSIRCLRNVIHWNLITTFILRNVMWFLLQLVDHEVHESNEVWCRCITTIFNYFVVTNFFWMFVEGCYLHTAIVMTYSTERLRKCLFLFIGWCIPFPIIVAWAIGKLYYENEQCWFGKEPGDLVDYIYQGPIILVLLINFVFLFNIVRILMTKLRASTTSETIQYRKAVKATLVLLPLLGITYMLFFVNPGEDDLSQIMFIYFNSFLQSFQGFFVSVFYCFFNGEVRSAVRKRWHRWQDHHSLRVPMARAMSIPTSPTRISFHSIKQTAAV
T3 sequence (P24387 whole entry): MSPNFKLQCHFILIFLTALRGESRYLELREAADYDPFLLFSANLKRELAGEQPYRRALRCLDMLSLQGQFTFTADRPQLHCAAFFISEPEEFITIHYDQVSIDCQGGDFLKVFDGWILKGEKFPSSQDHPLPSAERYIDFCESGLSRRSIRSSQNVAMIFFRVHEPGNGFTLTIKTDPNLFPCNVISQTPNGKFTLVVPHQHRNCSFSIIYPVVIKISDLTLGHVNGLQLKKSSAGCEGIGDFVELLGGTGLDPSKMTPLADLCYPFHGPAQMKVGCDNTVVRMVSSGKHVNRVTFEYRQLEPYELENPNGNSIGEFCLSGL

[11] = target: T4, Leucine aminopeptidase (Plasmodium falciparum 3D7, UniProt Q8IL11); experiment: P. falciparum M17LAP inhibitors, primary screen, biochemical, fluorogenic H-Leu-NHMec substrate, 1536-well (AID 1619); format: functional
T4 sequence (Q8IL11 whole entry): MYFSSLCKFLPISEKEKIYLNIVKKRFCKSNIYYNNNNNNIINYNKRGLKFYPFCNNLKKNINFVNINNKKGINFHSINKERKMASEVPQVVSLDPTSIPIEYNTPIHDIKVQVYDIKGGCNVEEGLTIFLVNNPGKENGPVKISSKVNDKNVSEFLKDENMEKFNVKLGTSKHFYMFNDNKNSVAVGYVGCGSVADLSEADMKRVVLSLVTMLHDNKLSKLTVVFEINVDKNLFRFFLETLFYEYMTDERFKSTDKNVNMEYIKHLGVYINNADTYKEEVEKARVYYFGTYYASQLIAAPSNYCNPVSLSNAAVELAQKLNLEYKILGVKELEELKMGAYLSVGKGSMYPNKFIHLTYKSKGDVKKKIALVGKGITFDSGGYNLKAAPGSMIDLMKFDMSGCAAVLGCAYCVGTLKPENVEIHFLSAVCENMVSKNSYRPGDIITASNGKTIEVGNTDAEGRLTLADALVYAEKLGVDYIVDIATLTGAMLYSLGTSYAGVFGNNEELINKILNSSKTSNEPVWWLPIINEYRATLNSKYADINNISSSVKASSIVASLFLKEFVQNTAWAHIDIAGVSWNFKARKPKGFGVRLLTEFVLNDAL

[12] = target: Cytochrome P450 2D6 (Homo sapiens, UniProt P10635);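 also: CYP2D6 member of a cytochrome P450 panel assay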
[13] = target: Induced myeloid leukemia cell differentiation protein Mcl-1 (Homo sapiens, UniProt Q07820); format: functional
[14] = target: Genome polyprotein (dengue virus type 2, UniProt P29990); experiment: flavivirus cap methylation enzyme inhibition – biochemical, confirmation dose response, primary screen (AID 588689); format: functional
Chain of Genome polyprotein (P29990 2492-3391 limits assumed): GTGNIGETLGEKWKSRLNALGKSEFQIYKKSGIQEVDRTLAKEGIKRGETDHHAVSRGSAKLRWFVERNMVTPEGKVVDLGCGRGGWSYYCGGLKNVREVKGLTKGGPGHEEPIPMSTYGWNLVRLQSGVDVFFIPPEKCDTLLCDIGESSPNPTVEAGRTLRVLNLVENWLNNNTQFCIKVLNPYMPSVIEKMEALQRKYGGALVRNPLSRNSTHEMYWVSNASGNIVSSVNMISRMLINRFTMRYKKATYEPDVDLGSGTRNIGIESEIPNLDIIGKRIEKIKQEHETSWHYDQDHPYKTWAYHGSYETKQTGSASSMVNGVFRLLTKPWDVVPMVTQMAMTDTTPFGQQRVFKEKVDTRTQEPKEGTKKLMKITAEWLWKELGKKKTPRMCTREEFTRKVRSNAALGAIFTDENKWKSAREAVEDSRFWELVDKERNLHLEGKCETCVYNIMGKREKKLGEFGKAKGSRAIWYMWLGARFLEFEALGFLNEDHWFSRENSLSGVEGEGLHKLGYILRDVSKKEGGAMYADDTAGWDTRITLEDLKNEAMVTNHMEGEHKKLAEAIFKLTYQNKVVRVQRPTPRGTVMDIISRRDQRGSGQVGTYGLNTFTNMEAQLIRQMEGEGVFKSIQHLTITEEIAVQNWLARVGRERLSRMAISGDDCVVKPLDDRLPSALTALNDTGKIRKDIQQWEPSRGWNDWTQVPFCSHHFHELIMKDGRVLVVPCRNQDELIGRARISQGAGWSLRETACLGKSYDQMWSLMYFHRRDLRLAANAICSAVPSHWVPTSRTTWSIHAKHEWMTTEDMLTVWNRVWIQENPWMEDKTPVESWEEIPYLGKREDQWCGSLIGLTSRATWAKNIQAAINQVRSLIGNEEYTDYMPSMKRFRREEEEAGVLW

Chain of FAD-linked sulfhydryl oxidase ALR (P55789 whole entry): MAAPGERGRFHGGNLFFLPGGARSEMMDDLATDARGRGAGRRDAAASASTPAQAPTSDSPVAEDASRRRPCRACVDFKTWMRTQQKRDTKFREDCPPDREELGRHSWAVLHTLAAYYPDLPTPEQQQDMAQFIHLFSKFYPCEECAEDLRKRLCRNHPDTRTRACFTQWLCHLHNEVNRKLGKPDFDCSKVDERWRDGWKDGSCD
Chain of Cytochrome P450 3A4 (P08684 whole entry): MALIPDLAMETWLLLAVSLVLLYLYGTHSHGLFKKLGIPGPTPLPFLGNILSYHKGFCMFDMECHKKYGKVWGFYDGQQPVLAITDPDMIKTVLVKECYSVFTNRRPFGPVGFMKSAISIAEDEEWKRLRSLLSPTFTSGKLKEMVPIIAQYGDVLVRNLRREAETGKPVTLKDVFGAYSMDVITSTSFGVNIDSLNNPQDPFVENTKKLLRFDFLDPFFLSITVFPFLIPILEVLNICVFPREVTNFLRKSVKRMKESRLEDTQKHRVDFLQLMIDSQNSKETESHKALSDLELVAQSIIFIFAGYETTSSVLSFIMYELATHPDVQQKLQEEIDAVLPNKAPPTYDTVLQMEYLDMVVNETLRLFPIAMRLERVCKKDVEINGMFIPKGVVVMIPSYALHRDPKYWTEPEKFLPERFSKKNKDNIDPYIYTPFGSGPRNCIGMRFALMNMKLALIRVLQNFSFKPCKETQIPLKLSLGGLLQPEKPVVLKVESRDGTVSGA
Chain of Large T antigen (P03070 whole entry): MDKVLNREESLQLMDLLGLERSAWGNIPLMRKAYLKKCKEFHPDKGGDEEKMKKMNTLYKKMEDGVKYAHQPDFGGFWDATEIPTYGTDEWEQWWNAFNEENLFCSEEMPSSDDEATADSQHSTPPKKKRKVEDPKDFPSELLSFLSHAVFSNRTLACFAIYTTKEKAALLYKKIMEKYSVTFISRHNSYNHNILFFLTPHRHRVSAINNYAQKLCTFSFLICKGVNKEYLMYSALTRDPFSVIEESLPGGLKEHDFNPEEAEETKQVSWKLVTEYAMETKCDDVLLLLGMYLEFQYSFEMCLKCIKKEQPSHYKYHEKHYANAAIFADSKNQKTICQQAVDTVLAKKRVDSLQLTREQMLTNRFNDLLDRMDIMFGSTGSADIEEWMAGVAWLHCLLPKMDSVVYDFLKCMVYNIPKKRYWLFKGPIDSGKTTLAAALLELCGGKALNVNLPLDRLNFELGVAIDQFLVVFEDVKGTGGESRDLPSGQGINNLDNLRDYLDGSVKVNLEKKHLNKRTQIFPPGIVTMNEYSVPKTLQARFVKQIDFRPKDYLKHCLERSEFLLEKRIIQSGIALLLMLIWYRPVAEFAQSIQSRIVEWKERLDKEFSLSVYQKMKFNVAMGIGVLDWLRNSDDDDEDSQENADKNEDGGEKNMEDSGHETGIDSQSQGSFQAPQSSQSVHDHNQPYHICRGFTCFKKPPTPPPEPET
Chain of Cytochrome P450 2D6 (P10635 whole entry): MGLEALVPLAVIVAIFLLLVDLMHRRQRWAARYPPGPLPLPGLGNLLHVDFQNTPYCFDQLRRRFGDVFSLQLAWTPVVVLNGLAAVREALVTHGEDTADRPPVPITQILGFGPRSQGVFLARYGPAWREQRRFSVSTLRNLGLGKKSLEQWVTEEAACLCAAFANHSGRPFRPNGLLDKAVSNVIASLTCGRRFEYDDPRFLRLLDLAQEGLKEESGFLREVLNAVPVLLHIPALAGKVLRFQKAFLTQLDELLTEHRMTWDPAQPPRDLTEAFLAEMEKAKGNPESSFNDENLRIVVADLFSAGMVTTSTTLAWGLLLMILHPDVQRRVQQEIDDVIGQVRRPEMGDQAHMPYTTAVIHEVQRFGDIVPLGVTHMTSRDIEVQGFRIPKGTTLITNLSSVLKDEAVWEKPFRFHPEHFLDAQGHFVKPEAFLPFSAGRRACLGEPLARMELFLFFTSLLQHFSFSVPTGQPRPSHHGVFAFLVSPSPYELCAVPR
Chain of Induced myeloid leukemia cell differentiation protein Mcl-1 (Q07820 whole entry): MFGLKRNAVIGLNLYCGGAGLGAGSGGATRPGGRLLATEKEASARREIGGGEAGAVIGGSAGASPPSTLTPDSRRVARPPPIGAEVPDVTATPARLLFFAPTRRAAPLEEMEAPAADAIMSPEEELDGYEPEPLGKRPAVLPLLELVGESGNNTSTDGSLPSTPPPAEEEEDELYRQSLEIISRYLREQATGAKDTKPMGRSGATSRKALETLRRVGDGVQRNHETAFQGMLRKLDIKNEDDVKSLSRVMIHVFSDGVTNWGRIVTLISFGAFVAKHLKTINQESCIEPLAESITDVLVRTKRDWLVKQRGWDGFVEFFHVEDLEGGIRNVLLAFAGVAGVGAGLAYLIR

O=C1CC[C@@]23/C=C/C(=O)NCCCCNCCCNC(=O)/C=C/c4ccc(c2c4)OC3C1 (some centres undefined)
AC50 [1]: 39.8 µM (inconclusive)

Cn1c(=O)n(CCc2ccccc2)c(=O)c2c1nc1n2CCCN1Cc1ccccc1
IC50 [2]: > 79 µM (inactive)

O=NN(O)c1ccccc1
AC50 [1]: 31.6 µM (inconclusive)

O=C(CC1SC(=O)N(c2ccccc2)C1=O)Nc1cccc2ccccc12 (centres undefined)
IC50 [3]: 70.4 µM (active)

O=C(O)c1ccc(N2C(=O)/C(=C/c3nc4ccccc4[nH]3)SC2=S)cc1
AC50 [4]: 0.009 µM (active)

CCOC(=O)c1ccc(S(=O)(=O)Nc2nc3cc(S(=O)(=O)NC4=NCCCCC4)ccc3s2)cc1
IC50 [3]: 33.4 µM (active)
IC50 [5]: 107 µM (active)

Cc1ccc(NC(=O)CN(C)C(=O)CCCN2C(=O)c3ccccc3C2=O)cc1
IC50 [6]: 10.3 µM (not active)

CCOC(=O)N1CCC(N2CCCC(C(=O)c3ccc4cc(OC)ccc4c3)C2)CC1 (centres undefined)
IC50 [7]: 21.9 µM (active)
EC50 [8]: 56.6 µM (active)
EC50 [9]: 1.12 µM (active)

COC(=O)COc1ccc2cc(-c3ccc(OC)cc3)c(=O)oc2c1
IC50 [7]: 1.12 µM (active)

O=C(NCC(c1cccnc1)N1CCN(c2ccccc2)CC1)OCc1ccccc1 (centres undefined)
AC50 [4]: 6.15 µM (active)

CN(C)c1ccc(CNC(=O)c2cc(S(=O)(=O)N3CCCC3)cn2C)cc1
AC50 [4]: 8.78 µM (active)

CCCCNc1nc(C)nc2c1nc(C)n2CCC
AC50 [1]: 31.6 µM (inconclusive)

O=C(Nc1ccc(Oc2ccccc2)cc1)C1CCCN(c2ncccn2)C1 (centres undefined)
EC50 [10]: > 53 µM (inactive)
IC50 [6]: 14.7 µM (not active)

CC(=O)N1CCN=C1SCc1ccccc1F
AC50 [4]: 13.9 µM (active)

CCOC(=O)CSc1nc2c(sc(=S)n2-c2ccccc2)c(=O)[nH]1
IC50 [11]: 35.6 µM (active)

O=[N+]([O-])c1c(O)nc(/C=C\c2ccc(O)cc2)nc1O
IC50 [5]: 50.6 µM (active)
AC50 [4]: 4.4 µM (active)

CNC(=O)c1ccc(-c2sc3nc(N4CCOCC4)c4c(c3c2N)CC(C)(C)OC4)o1
AC50 [12]: 15.8 µM (inconclusive)
IC50 [2]: > 79 µM (inactive)
IC50 [3]: 2.6 µM (active)

O=C(Nc1cccc(C(=O)O)c1)/C(=C\C=C\c1ccccc1)NC(=O)c1ccccc1
IC50 [6]: 13.6 µM (not active)

O=C1NC(Cc2ccc(O)cc2)c2nc3ccc(F)cc3c(=O)n2-c2cc3ccccc3cc21 (centres undefined)
IC50 [2]: > 79 µM (inactive)

COc1cc(/C=N/Nc2nc3ccccc3nc2O)ccc1O
IC50 [3]: 18 µM (active)

C/C(=N\Nc1cccc(C(=O)O)c1)c1ccc2c(c1)Nc1ccccc1S2
IC50 [13]: 431 nM (active)
IC50 [14]: > 100 µM (active)
